Source: patent US20220233624A9, “ANTI-CANCER AND ANTI-PROLIFERATIVE COMPOSITIONS, AND METHODS FOR THEIR USE IN TREATING CANCER” (Natreon, Inc., priority 2020, published 2022)
Like-named read-outs stand apart in the source and are kept apart here.

Tests used:
[1] = test system: Histiocytic lymphoma (U-937) cells; experiment: Anti-proliferation assay on histiocytic lymphoma cells; type: cell-based; conditions: Homo sapiens
Description: Cells were plated at 1.25 k/well in 384 well plates. […] Anti-proliferative assays were generally performed as described in Example I above, in triplicate, with detection reagent CellTiterGlo. Tables 98-99 show data for controls for assays on histiocytic lymphoma (U-937) cells, and that the data passed quality control parameters. Tables 101-102 show data for controls for assays on pancreatic cancer (Panc-1) cells, and that the data passed quality control parameters. […] The assay is generally as described in Example I.

[2] = test system: TN Breast Cancer cell line MDAMB-231; experiment: Anti-proliferation assay on MDAMB-231 cells (72 h and 120 h); type: cell-based; conditions: Homo sapiens, MDA-MB-231, 10 uM
Description: Also, AyuFlex®, Capros®, and Ayuric® were tested in the anti-proliferative assay discussed above in the TN Breast Cancer cell line MDAMB-231. AyuFlex®, Capros®, and Ayuric® were incubated for 72 hours and 120 hours. The dose-response efficacy of AyuFlex®, Capros®, and Ayuric® after a 72-hour period of incubation was similar to that observed after a 120-hour period of incubation with the MDAMB-231 cells. Without being bound by theory, possibly this was due to saturation of cell growth at the 120-hour time-point.

Compound: COc1cccc2c1C(=O)c1c(O)c3c(c(O)c1C2=O)C[C@@](O)(C(=O)CO)C[C@@H]3O[C@H]1C[C@H](N)[C@H](O)[C@H](C)O1 [Doxorubicin, doxorubicin]
- inhibition at 10 µM ([1]; 10 uM, 72 h, read-out: % Inhibition Average (SD)): 100%
- inhibition at 10 µM ([1]; 10 uM, 72 h, read-out: % Inhibition n1): 100%
- inhibition at 10 µM ([1]; 10 uM, 72 h, read-out: % Inhibition n2): 100%
- inhibition at 10 µM ([1]; 10 uM, 72 h, read-out: % Inhibition n3): 100%
- inhibition at 10 µM ([1]; drug 10 uM, read-out: inhibition): 100%
- inhibition at 10 µM ([2]; 72 hour incubation, read-out: % Inhibition Avg): 75%
- inhibition at 10 µM ([2]; 72 hour incubation, read-out: % Inhibition n1): 78%
- inhibition at 10 µM ([2]; 72 hour incubation, read-out: % Inhibition n2): 73%
- inhibition at 10 µM ([2]; 72 hour incubation, read-out: % Inhibition n3): 73%
- inhibition at 10 µM ([2]; 120 hour incubation, read-out: % Inhibition Avg): 92%
- inhibition at 10 µM ([2]; 120 hour incubation, read-out: % Inhibition n1): 94%
- inhibition at 10 µM ([2]; 120 hour incubation, read-out: % Inhibition n2): 91%
- inhibition at 10 µM ([2]; 120 hour incubation, read-out: % Inhibition n3): 92%
